According to PubChem BioAssay (NCI):
“And” between values parts separate entries of the source, which are not always exact repeats. Equal entries are not always repeated.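 Briefly, cells in 96-well plates were exposed to five compound concentrations for 48 h, and endpoints were estimated by linear interpolation. Here, GI50 denotes the concentration required for 50% inhibition of growth. TGI: total growth inhibition.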

How the values were obtained:
Assay in all cases: NCI tumour cell line growth inhibition, 48 h
PC-3 prostate = tested on: PC-3 prostate
DLD-1 colon = tested on: DLD-1 colon
MDA-MB-231 breast = tested on: MDA-MB-231 breast
MCF7 breast = tested on: MCF7 breast
MDA-N = tested on: MDA-N
TK-10 renal = tested on: TK-10 renal
KM20L2 colon = tested on: KM20L2 colon
BT-549 breast = tested on: BT-549 breast
SF-539 CNS = tested on: SF-539 CNS
OVCAR-5 ovarian = tested on: OVCAR-5 ovarian
NCI-H226 lung = tested on: NCI-H226 lung
P388/ADR leukemia = tested on: P388/ADR leukemia
SNB-78 CNS = tested on: SNB-78 CNS
SN12C renal = tested on: SN12C renal
A549 NSCLC = tested on: A549 NSCLC
HOP-92 NSCLC = tested on: HOP-92 NSCLC
NCI-H522 lung = tested on: NCI-H522 lung
DMS 114 small cell lung = tested on: DMS 114 small cell lung
SK-MEL-28 melanoma = tested on: SK-MEL-28 melanoma
SNB-19 CNS = tested on: SNB-19 CNS
MDA-MB-435 = tested on: MDA-MB-435
SR leukemia = tested on: SR leukemia
A498 renal = tested on: A498 renal
CAKI-1 renal = tested on: CAKI-1 renal
EKVX NSCLC = tested on: EKVX NSCLC
T-47D breast = tested on: T-47D breast
786-0 renal = tested on: 786-0 renal
OVCAR-4 ovarian = tested on: OVCAR-4 ovarian
ACHN renal = tested on: ACHN renal
HS 578T breast = tested on: HS 578T breast
SW-620 colon = tested on: SW-620 colon
UO-31 renal = tested on: UO-31 renal
SF-268 CNS = tested on: SF-268 CNS
SK-MEL-2 melanoma = tested on: SK-MEL-2 melanoma
P388 leukemia = tested on: P388 leukemia
M14 melanoma = tested on: M14 melanoma
MALME-3M melanoma = tested on: MALME-3M melanoma
NCI-H23 lung = tested on: NCI-H23 lung
MOLT-4 leukemia = tested on: MOLT-4 leukemia
DU-145 prostate = tested on: DU-145 prostate
HCT-116 colon = tested on: HCT-116 colon
HOP-18 NSCLC = tested on: HOP-18 NSCLC

With `C=C1CC2CC[C@@]34CC5O[C@@H]6C(O[C@H]7CC[C@H](CC(=O)OC8C(C)C9OC%10C[C@]%11(C[C@@H]%12O[C@]%13(CC(C)[C@@H]%14O[C@H](C(O)CC(O)CO)C[C@@H]%14O%13)CC(C)[C@@H]%12O%11)OC%10CC9O[C@H]8C[C@H]8OC(CC[C@@H]1O2)C[C@@H](C)C8=C)OC7[C@@H]6O3)[C@H]5O4` (stereo partly specified) as the compound, how does the GI50 (PC-3 prostate) read?
The GI50 was 0.886 nM.

What about the GI50 (DLD-1 colon) of the same compound?
Its GI50 is 0.255 nM.

What about the TGI (DLD-1 colon) of the same compound?
The TGI was 2550 nM.

And the GI50 (MDA-MB-231 breast)?
The GI50 was 2.67 nM.

And the TGI (MCF7 breast)?
The TGI was 2.55 µM and 21.4 µM.

What about the GI50 (MDA-N) of the same compound?
Its GI50 is 0.0269 nM and 0.151 nM.

What about the TGI (MDA-N) of the same compound?
Its TGI is 0.756 nM and 2.65 nM.

What about the TGI (TK-10 renal) of the same compound?
The TGI was 16800 nM.

What about the TGI (KM20L2 colon) of the same compound?
The TGI was 1.67 nM.

And the TGI (BT-549 breast)?
Its TGI is 2690 nM.

And the TGI (SF-539 CNS)?
The TGI was 4.2 nM and 3.72 nM and 1.3 nM.

And the TGI (OVCAR-5 ovarian)?
Its TGI is 7.64 nM.

What about the TGI (NCI-H226 lung) of the same compound?
The TGI was 7.09 nM and 7.25 nM and 21.7 nM.

And the TGI (P388/ADR leukemia)?
The TGI was 0.00846 µM.

And the GI50 (SNB-78 CNS)?
Its GI50 is 0.255 nM.

And the TGI (SNB-78 CNS)?
The TGI was 2550 nM.

And the TGI (SN12C renal)?
The TGI was 2.55 µM and 6.41 µM.

And the TGI (A549 NSCLC)?
Its TGI is 2550 nM and 1650 nM.

What about the GI50 (HOP-92 NSCLC) of the same compound?
The GI50 was 15.6 nM and 6.03 nM.

And the TGI (NCI-H522 lung)?
The TGI was 0.7 nM and 0.489 nM and 0.304 nM.

What about the GI50 (DMS 114 small cell lung) of the same compound?
Its GI50 is 0.255 nM.

What about the TGI (DMS 114 small cell lung) of the same compound?
The TGI was 5.54 nM and 8.56 nM.

And the GI50 (SK-MEL-28 melanoma)?
The GI50 was 1.01 nM.

And the TGI (SNB-19 CNS)?
The TGI was 1820 nM.

What about the TGI (MDA-MB-435) of the same compound?
The TGI was 0.511 nM.

What about the GI50 (SR leukemia) of the same compound?
The GI50 was 0.0153 nM.

And the TGI (A498 renal)?
The TGI was 32.1 nM and 6.79 nM.

And the TGI (CAKI-1 renal)?
Its TGI is 464 nM and 1540 nM.

What about the TGI (EKVX NSCLC) of the same compound?
The TGI was 2850 nM.

And the TGI (T-47D breast)?
Its TGI is 5320 nM.

What about the TGI (786-0 renal) of the same compound?
The TGI was 1220 nM.

What about the TGI (OVCAR-4 ovarian) of the same compound?
Its TGI is 838 nM and 2420 nM.

And the TGI (ACHN renal)?
Its TGI is 1280 nM.

And the GI50 (HS 578T breast)?
The GI50 was 0.182 nM.

And the TGI (SW-620 colon)?
Its TGI is 2550 nM.

And the TGI (UO-31 renal)?
Its TGI is 2460 nM.

What about the TGI (SF-268 CNS) of the same compound?
Its TGI is 2550 nM and 1470 nM.

And the TGI (SK-MEL-2 melanoma)?
Its TGI is 9.31 nM and 4.34 nM.

`C[C@@H]1O[C@@H](O[C@H]2CC[C@]3(C=O)[C@H]4CC[C@]5(C)[C@@H](c6ccc(=O)oc6)CC[C@]5(O)[C@@H]4CC[C@]3(O)C2)[C@H](O)[C@H](O)[C@H]1O[C@@H]1O[C@H](CO)[C@@H](O)[C@H](O)[C@H]1O` was tested. Which GI50 (PC-3 prostate) did it give?
The GI50 was 17.8 nM.

And the TGI (PC-3 prostate)?
Its TGI is 28.5 nM and 33.6 nM.

What about the TGI (MDA-MB-231 breast) of the same compound?
Its TGI is 129 nM.

And the GI50 (MDA-N)?
Its GI50 is 17.3 nM.

And the TGI (MDA-N)?
The TGI was 59.5 nM and 33.3 nM.

What about the GI50 (TK-10 renal) of the same compound?
The GI50 was 13.2 nM.

What about the TGI (TK-10 renal) of the same compound?
Its TGI is 16 nM and 56.9 nM.

What about the GI50 (BT-549 breast) of the same compound?
Its GI50 is 25.2 nM.

And the TGI (BT-549 breast)?
Its TGI is 28.5 nM and 70.1 nM.

What about the TGI (SF-539 CNS) of the same compound?
The TGI was 21 nM and 24.5 nM.

And the GI50 (NCI-H226 lung)?
Its GI50 is 40.9 nM.

And the TGI (NCI-H226 lung)?
The TGI was 57.6 nM and 43.7 nM and 93.3 nM.

And the TGI (P388/ADR leukemia)?
Its TGI is 355 µM.

What about the TGI (P388 leukemia) of the same compound?
The TGI was 176 µM.

And the GI50 (DMS 114 small cell lung)?
Its GI50 is < 0.000375 nM.

And the GI50 (M14 melanoma)?
Its GI50 is 30.4 nM.

And the TGI (M14 melanoma)?
The TGI was 48.3 nM and 125 nM.

And the GI50 (MALME-3M melanoma)?
Its GI50 is 14.2 nM and 20.6 nM.

What about the TGI (MALME-3M melanoma) of the same compound?
The TGI was 34.3 nM and 47.7 nM.

What about the GI50 (SNB-19 CNS) of the same compound?
The GI50 was 30.1 nM and 37.5 nM.

What about the TGI (SNB-19 CNS) of the same compound?
The TGI was 141 nM and 118 nM and 64.3 nM.

And the GI50 (MDA-MB-435)?
Its GI50 is 26.1 nM.

And the TGI (MDA-MB-435)?
Its TGI is 34.4 nM and 62 nM.

What about the TGI (SR leukemia) of the same compound?
The TGI was 868 nM.

What about the GI50 (CAKI-1 renal) of the same compound?
Its GI50 is 37.5 nM.

And the TGI (CAKI-1 renal)?
Its TGI is 32.2 nM and 25.1 nM and 37.9 nM.

And the GI50 (NCI-H23 lung)?
Its GI50 is < 0.375 pM.

And the TGI (MOLT-4 leukemia)?
The TGI was 14.4 nM and 70.8 nM.

And the GI50 (T-47D breast)?
The GI50 was 24 nM.

What about the TGI (T-47D breast) of the same compound?
The TGI was 46.5 nM and 56.4 nM.

What about the GI50 (DU-145 prostate) of the same compound?
The GI50 was 12.9 nM.

What about the TGI (DU-145 prostate) of the same compound?
The TGI was 8.37 nM and 42.4 nM.

What about the TGI (786-0 renal) of the same compound?
The TGI was 16.4 nM and 17.4 nM.

What about the TGI (HCT-116 colon) of the same compound?
Its TGI is 35.8 nM and 19.4 nM.

What about the TGI (ACHN renal) of the same compound?
The TGI was 19.5 nM and 23.3 nM.

And the GI50 (UO-31 renal)?
Its GI50 is 37.5 nM.

What about the TGI (UO-31 renal) of the same compound?
The TGI was 51.2 nM and 47.9 nM.

And the TGI (HOP-18 NSCLC)?
Its TGI is 21.9 nM.
